{"source": "patent US9737504B2", "about": "“Dihydroorotic and acid dehydrogenase inhibitor” (NAI INC., priority 2012, dated 2017)", "key": {"human DHOD": {"target": "human DHOD (Homo sapiens, UniProt Q02127)", "sequence (Q02127 whole entry)": "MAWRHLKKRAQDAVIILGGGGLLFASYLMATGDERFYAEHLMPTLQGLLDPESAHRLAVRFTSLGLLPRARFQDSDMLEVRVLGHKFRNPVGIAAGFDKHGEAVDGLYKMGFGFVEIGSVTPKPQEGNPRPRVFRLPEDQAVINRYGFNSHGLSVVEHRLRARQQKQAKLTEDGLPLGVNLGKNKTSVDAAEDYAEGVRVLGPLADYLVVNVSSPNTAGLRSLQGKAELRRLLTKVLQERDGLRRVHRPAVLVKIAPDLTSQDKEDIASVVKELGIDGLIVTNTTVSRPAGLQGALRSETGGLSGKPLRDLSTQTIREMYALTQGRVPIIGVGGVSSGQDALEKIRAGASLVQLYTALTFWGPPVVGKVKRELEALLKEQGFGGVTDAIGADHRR", "assay": "Measurement of DHOD inhibitory activity (DCIP reduction, end point assay)", "type": "biochemical", "settings": "read-out: DHOD inhibition rate (%) 100 nM; 100 nM compound"}, "HT-29": {"system": "HT-29", "assay": "JFCR39 cancer cell growth inhibition test, HT-29", "type": "cell-based", "settings": "Homo sapiens; HT-29, Co (Colon)"}, "DMS273": {"system": "DMS273", "assay": "JFCR39 cancer cell growth inhibition test, DMS273", "type": "cell-based", "settings": "Homo sapiens, DMS-273; DMS273, Lu (Lung)"}, "KM-12": {"system": "KM-12", "assay": "JFCR39 cancer cell growth inhibition test, KM-12", "type": "cell-based", "settings": "Homo sapiens, KM12; KM-12, Co (Colon)"}, "MKN28": {"system": "MKN28", "assay": "JFCR39 cancer cell growth inhibition test, MKN28", "type": "cell-based", "settings": "Homo sapiens, MKN-28; MKN28, St (Stomac)"}, "OVCAR-3": {"system": "OVCAR-3", "assay": "JFCR39 cancer cell growth inhibition test, OVCAR-3", "type": "cell-based", "settings": "Homo sapiens; OVCAR-3, Ov (Ovarian)"}, "A549": {"system": "A549", "assay": "JFCR39 cancer cell growth inhibition test, A549", "type": "cell-based", "settings": "Homo sapiens; A549, Lu (Lung)"}, "HCT-116": {"system": "HCT-116", "assay": "JFCR39 cancer cell growth inhibition test, HCT-116", "type": "cell-based", "settings": "Homo sapiens; HCT-116, Co (Colon)"}, "HCC2998": {"system": "HCC2998", "assay": "JFCR39 cancer cell growth inhibition test, HCC2998", "type": "cell-based", "settings": "Homo sapiens, HCC 2998; HCC2998, Co (Colon)"}}}
{"smiles": "C/C(=C\\Cc1c(O)c(Cl)c(C)c(C=O)c1O)CC/C=C(\\C)[C@@H]1CC(=O)C(C)(C)O1", "note": "(racemic) [Ascofuranone, dl-5-Chloro-2,4-dihydroxy-6-methyl-3-[(2E,6E)-3-methyl-7-(3,3-dimethyl-4-oxo-2-oxacyclopentyl)-2,6-octadienyl]benzaldehyde]", "values": [{"measurement": "inhibition at 0.1 µM", "setting": "human DHOD", "result": 95, "unit": "%"}, {"measurement": "GI50", "setting": "HT-29", "result": 6.6, "unit": "µM"}, {"measurement": "GI50", "setting": "DMS273", "result": 5.9, "unit": "µM"}, {"measurement": "GI50", "setting": "KM-12", "result": 9.3, "unit": "µM"}, {"measurement": "GI50", "setting": "MKN28", "result": 9.7, "unit": "µM"}, {"measurement": "GI50", "setting": "OVCAR-3", "result": 8, "unit": "µM"}, {"measurement": "GI50", "setting": "A549", "result": 7.6, "unit": "µM"}, {"measurement": "GI50", "setting": "HCT-116", "result": 5.1, "unit": "µM"}, {"measurement": "GI50", "setting": "HCC2998", "result": 17, "unit": "µM"}]}
